{"source": "paper PMC6017299", "about": "“Ent-Clerodane Diterpenes from the Bark of Croton oligandrus Pierre ex Hutch. and Assessment of Their Cytotoxicity against Human Cancer Cell Lines” (Molecules : A Journal of Synthetic Chemistry and Natural …, 2018)", "assay_type_in_all_cases": "cell-based", "key": {"[1]": {"system": "PC3 (human prostate cancer cell line)", "assay": "MTT cell viability assay, PC3 cells", "settings": "0 to 200 µM, 48 h, mean ± SEM (n = 3), read-out: IC50 (50% cell growth inhibition) PC-3", "procedure": "(§1) The in vitro activity of the crude extracts, fractions and isolated compounds from C. oligandrus on metabolic cell viability was assessed against A549 (adenocarcinoma human alveolar basal epithelial cell 211 line), MCF7 (human breast adenocarcinoma cell line), PC3 (human prostate cancer cell line) and PNT2 212 (human normal prostate epithelium cell line). The resulting inhibitory activity is termed “cytotoxic activity” throughout the manuscript. The cell lines were grown in RPMI medium supplemented with L-glutamine (2 mM), penicillin (100 U/mL), streptomycin (100 μg/mL) and 10% foetal bovine serum (FBS) and cultured at 37 °C, 5% CO2 and 95% humidity. For experimental use, the cells were seeded into 96-well plates (1.2 × 10^4/well) and incubated for 24 h. Cells were then treated with crude extract (0–250 µg/mL) for 24 h or isolated compounds (0 to 200 µM) for 48 h and the cell viability was measured using the MTT assay. The formazan crystals formed were dissolved in DMSO and optical density was read at 570 nm using a ClarioStar plate reader, Manchester, UK. Three individual wells were assayed per treatment; the assay was repeated three times and cytotoxic activity was determined using the percentage of absorbance compared to the control cells [(absorbance of treated cells/absorbance of untreated cells) × 100]. Doxorubicin was used as the positive control and the IC50 value of each test sample was calculated using the software Graphad Prism 7.02, La Jolla, CA, USA."}, "[2]": {"system": "MCF7 (human breast adenocarcinoma cell line)", "assay": "MTT cell viability assay, MCF7 cells", "settings": "0 to 200 µM, mean ± SEM (n = 3), read-out: IC50 (50% cell growth inhibition) MCF-7", "procedure": "(§2) The resulting inhibitory activity is termed “cytotoxic activity” throughout the manuscript. The cell lines were grown in RPMI medium supplemented with L-glutamine (2 mM), penicillin (100 U/mL), streptomycin (100 μg/mL) and 10% foetal bovine serum (FBS) and cultured at 37 °C, 5% CO2 and 95% humidity. For experimental use, the cells were seeded into 96-well plates (1.2 × 10^4/well) and incubated for 24 h. […] The formazan crystals formed were dissolved in DMSO and optical density was read at 570 nm using a ClarioStar plate reader, Manchester, UK. Three individual wells were assayed per treatment; the assay was repeated three times and cytotoxic activity was determined using the percentage of absorbance compared to the control cells [(absorbance of treated cells/absorbance of untreated cells) × 100]."}, "[3]": {"system": "PNT2 (human normal prostate epithelium cell line)", "assay": "MTT cell viability assay, PNT2 cells", "settings": "0 to 200 µM, 48 h, noncancerous cells, mean ± SEM (n = 3), read-out: IC50 (50% cell growth inhibition) PNT2", "procedure": "as §1"}, "[4]": {"system": "A549 (adenocarcinoma human alveolar basal epithelial cell line)", "assay": "MTT cell viability assay, A549 cells", "settings": "0 to 200 µM, 48 h, mean ± SEM (n = 3), read-out: IC50 (50% cell growth inhibition) A549", "procedure": "as §1"}, "[5]": {"system": "A549, MCF7, PC3 and PNT2 cell lines", "assay": "MTT cell viability assay, statements across the cell line panel", "settings": "Homo sapiens, positive control, read-out: IC50 range between the cell lines used", "procedure": "as §2"}, "[6]": {"settings": "Homo sapiens, PC-3, isolated compounds"}, "[7]": {"settings": "Homo sapiens, PNT2, isolated compounds"}, "[8]": {"settings": "Homo sapiens, MCF7, isolated compounds, 48 h"}, "[9]": {"settings": "Homo sapiens, A549, isolated compounds"}}, "note": "Where two headings read alike, the source gives them in different places.", "data": [{"smiles": "COC(=O)C1=CC(=O)C=C2C1(C(=O)OC)CCC(C)C21CC(c2ccoc2)OC1=O", "note": "(centres unmarked) [Compound 1, megalocarpoidolide D]", "values": [{"measurement": "IC50", "setting": "[1]; [6]", "value": "> 200", "unit": "µM"}, {"measurement": "IC50", "setting": "[2]; Homo sapiens, MCF7, 48 h, isolated compounds", "value": "136 ± 22.7", "unit": "µM"}, {"measurement": "IC50", "setting": "[3]; [7]", "value": "> 200", "unit": "µM"}, {"measurement": "IC50", "setting": "[4]; isolated compounds", "value": "63.8 ± 13.8", "unit": "µM"}]}, {"smiles": "COC(=O)C1=CC(=O)C=C2C1(C(=O)OC)CCC(C)C21CC(c2ccoc2)OC1=O", "note": "(stereo not drawn) [Compound 2, 12-epi-megalocarpoidolide D]", "values": [{"measurement": "IC50", "setting": "[1]; isolated compounds", "value": "> 200", "unit": "µM"}, {"measurement": "IC50", "setting": "[2]; isolated compounds, 48 h", "value": "171 ± 51.4", "unit": "µM"}, {"measurement": "IC50", "setting": "[3]; isolated compounds", "value": "> 200", "unit": "µM"}, {"measurement": "IC50", "setting": "[4]; isolated compounds", "value": "139 ± 22.1", "unit": "µM"}]}, {"smiles": "COC(=O)C1=CCCC2C1(C(=O)OC)CCC(C)C21CC(c2ccoc2)OC1=O", "note": "(stereo not drawn) [Compound 5, 12-epi-crotocorylifuran]", "values": [{"measurement": "IC50", "setting": "[1]; [6]", "value": "> 200", "unit": "µM"}, {"measurement": "IC50", "setting": "[2]; [8]", "value": "> 200", "unit": "µM"}, {"measurement": "IC50", "setting": "[3]; [7]", "value": "> 200", "unit": "µM"}, {"measurement": "IC50", "setting": "[4]; [9]", "value": "107 ± 27.2", "unit": "µM"}]}, {"smiles": "COc1cc(C=O)ccc1O", "note": "[Compound 8, vanillin]", "values": [{"measurement": "IC50", "setting": "[1]; [6]", "value": "> 200", "unit": "µM"}, {"measurement": "IC50", "setting": "[2]; [8]", "value": "> 200", "unit": "µM"}, {"measurement": "IC50", "setting": "[3]; [7]", "value": "> 200", "unit": "µM"}, {"measurement": "IC50", "setting": "[4]; [9]", "value": "> 200", "unit": "µM"}]}, {"smiles": "CC(=O)O[C@H]1CC[C@]2(C)[C@H]3CC[C@]4(C)C(=CC[C@@]5(C(=O)O)CCC(C)(C)C[C@H]54)[C@]3(C)CC[C@H]2C1(C)C", "note": "[Compound 9, acetyl-aleuritolic acid]", "values": [{"measurement": "IC50", "setting": "[1]; [6]", "value": "172 ± 39.7", "unit": "µM"}, {"measurement": "IC50", "setting": "[2]; [8]", "value": "> 200", "unit": "µM"}, {"measurement": "IC50", "setting": "[3]; [7]", "value": "168 ± 25.3", "unit": "µM"}, {"measurement": "IC50", "setting": "[4]; [9]", "value": "137 ± 18.9", "unit": "µM"}]}, {"smiles": "C=C(C)[C@@H]1CC[C@]2(C)CC[C@]3(C)[C@H](CC[C@@H]4[C@@]5(C)CC[C@H](O)C(C)(C)[C@@H]5CC[C@]43C)[C@@H]12", "note": "[Compound 10, lupeol]", "values": [{"measurement": "IC50", "setting": "[1]; [6]", "value": "136 ± 21.1", "unit": "µM"}, {"measurement": "IC50", "setting": "[2]; [8]", "value": "> 200", "unit": "µM"}, {"measurement": "IC50", "setting": "[3]; [7]", "value": "> 200", "unit": "µM"}, {"measurement": "IC50", "setting": "[4]; [9]", "value": "> 200", "unit": "µM"}]}, {"smiles": "COc1cccc2c1C(=O)c1c(O)c3c(c(O)c1C2=O)C[C@@](O)(C(=O)CO)C[C@@H]3O[C@H]1C[C@H](N)[C@H](O)[C@H](C)O1", "note": "[Doxorubicin, reference compound]", "values": [{"measurement": "IC50", "setting": "[1]; [6]", "value": "16.4 ± 2.9", "unit": "µM"}, {"measurement": "IC50", "setting": "[2]; [8]", "value": "0.7 ± 0.1", "unit": "µM"}, {"measurement": "IC50", "setting": "[3]; [7]", "value": "1.5 ± 0.3", "unit": "µM"}, {"measurement": "IC50", "setting": "[5]", "value": "0.7 to 16.4", "unit": "µM"}, {"measurement": "IC50", "setting": "[4]; [9]", "value": "1.3 ± 0.3", "unit": "µM"}]}]}
